Results reported in US11413278B2, “Compounds and methods for promoting stress resistance” (priority 2015, dated 2022).
“Also recorded” adds a separate entry of the source. Where two headings read alike, the source gives them in different places.

What was measured:
[1] = target: T1, human PARP1 (Homo sapiens, UniProt P09874); assay: PARP inhibitor assay (HT Fluorescent Homogeneous PARP Inhibition Assay Kit); assay type: biochemical; conditions: score
T1 construct: purchased Trevigen
Description: (§1) The assay was performed with the HT Fluorescent Homogeneous PARP Inhibition Assay Kit (Trevigen), following manufacturer's instructions. Briefly, nicotinamide adenine dinucleotide, human PARP1 and activated-DNA solution was added onto a 96-well plate. 54 repurchased small molecules, at 10 μM final concentration, were introduced onto the 96-well assay plate and incubated in a humid chamber at room temperature for 30 min in dark. Cycling mixture, with resazurin and cycling enzyme diaphorase, was then added and incubated further for 1 hr in dark. Reaction was terminated by adding the stopping buffer.
as §1, with “(Trevegen),” for “(Trevigen),”, “stopped” for “terminated”

[2] = tested on: FOXO3; assay: qPCR analysis of FOXO3-regulated genes; assay type: cell-based, human; conditions: for Induction of at least two of five FOXO3-regulated genes (SOD2, GADD45A, CAT, DDB1, TXNIP): WI-38; for fold induction at 10 µM: Homo sapiens; for K = Sestrin induction: score
In short: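 WI-38 cells treated with compound at 10 μM for 24 h, followed by Cells-to-Ct RT-qPCR of FOXO3 target genes normalised to B2M, PPIA and GAPDH. FOXO3 or NRF2 dependence tested by prior 10 nM siRNA knockdown (36 h transfection, compound added ~24 h after replating).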

[3] = tested on: PC12 cells expressing poly(Q)103-Htt-EGFP; assay: Poly(Q) toxicity & viability analysis (cellular model of Huntington's disease); assay type: cell-based, rat; conditions: for M = Huntington's poly-Q toxicity attenuation: score; for K = Huntington's poly-Q toxicity attenuation: summary score
Description: Viability assays were performed as described before (Aiken et al., 2004). PC12 cells that stably express the inducible poly(Q)103-Htt-EGFP were grown in culture. […] Cell viability was analyzed 48 hrs later by measuring ATP content with CellTiter-Glo.
Toxic protein aggregation is a key feature of many age-related neurodegenerative diseases, including Alzheimer's and Huntington's disease (Caughey and Lansbury, 2003; Ross and Poirier, 2004). A number of animal models (Phillips et al., 2009) and cell models (Schlachetzki et al., 2013) have been established to study these diseases. For this purpose, PC12 rat pheochromocytoma cells display neuronal features and produce neurotransmitters and have been used extensively to study neuronal phenotypes, including synaptic transmission and neurological diseases. […] In this model, induced expression of poly(Q)103-Htt-EGFP could lead to the formation of aggregates and exert substantial toxicity in cells.

[4] = tested on: WI-38 cells; conditions: no H2O2 stress, 10 uM; negative control 0.41% ± 0.23%
Description: WI-38 cells were seeded on 384-well plates for 24 hrs and then incubated with small molecules for 24 hrs. […] Images were collected on an INCell Analyzer 2000 (GE) and analyzed with the Developer software.

[5] = 24 h, Assay 10(m), at 10 uM, qPCR, read-out: Induction of FOXO3-regulated genes: CAT normalized fold-change
[6] = 10 μM, 24 hrs, WI-38 cells, qPCR, normalized to B2M, n = 4, read-out: CAT expression, normalized fold change (FOXO3-regulated gene)
[7] = 10 μM, 24 hrs, WI-38 cells, qPCR, normalized to B2M, n = 4, read-out: TXNIP expression, normalized fold change (FOXO3-regulated gene)
[8] = WI-38 cells, 10 μM, 24 hrs, n=4, qPCR normalized by B2M, read-out: DDB1 Normalized fold change
[9] = WI-38 cells, 10 μM, 24 hrs, n=4, qPCR normalized by B2M, read-out: GADD45A Normalized fold change
[10] = WI-38 cells, 10 μM, 24 hrs, n=4, qPCR normalized by B2M, read-out: SESN1 Normalized fold change
[11] = fold change, qPCR, WI-38 cells, 10 μM, 24 hrs, read-out: Summary of effects on FOXO3-regulated genes: CAT
[12] = fold change, qPCR, WI-38 cells, 10 μM, 24 hrs, read-out: Summary of effects on FOXO3-regulated genes: TXNIP
[13] = qPCR, WI-38 cells, 10 μM, n=4, 24 hrs, normalized by B2M, read-out: CAT Normalized fold change
[14] = qPCR, WI-38 cells, 10 μM, n=4, 24 hrs, normalized by B2M, read-out: SOD2 Normalized fold change
[15] = qPCR, WI-38 cells, 10 μM, n=4, 24 hrs, normalized by B2M, read-out: TXNIP Normalized fold change

T1 sequence (P09874 whole entry): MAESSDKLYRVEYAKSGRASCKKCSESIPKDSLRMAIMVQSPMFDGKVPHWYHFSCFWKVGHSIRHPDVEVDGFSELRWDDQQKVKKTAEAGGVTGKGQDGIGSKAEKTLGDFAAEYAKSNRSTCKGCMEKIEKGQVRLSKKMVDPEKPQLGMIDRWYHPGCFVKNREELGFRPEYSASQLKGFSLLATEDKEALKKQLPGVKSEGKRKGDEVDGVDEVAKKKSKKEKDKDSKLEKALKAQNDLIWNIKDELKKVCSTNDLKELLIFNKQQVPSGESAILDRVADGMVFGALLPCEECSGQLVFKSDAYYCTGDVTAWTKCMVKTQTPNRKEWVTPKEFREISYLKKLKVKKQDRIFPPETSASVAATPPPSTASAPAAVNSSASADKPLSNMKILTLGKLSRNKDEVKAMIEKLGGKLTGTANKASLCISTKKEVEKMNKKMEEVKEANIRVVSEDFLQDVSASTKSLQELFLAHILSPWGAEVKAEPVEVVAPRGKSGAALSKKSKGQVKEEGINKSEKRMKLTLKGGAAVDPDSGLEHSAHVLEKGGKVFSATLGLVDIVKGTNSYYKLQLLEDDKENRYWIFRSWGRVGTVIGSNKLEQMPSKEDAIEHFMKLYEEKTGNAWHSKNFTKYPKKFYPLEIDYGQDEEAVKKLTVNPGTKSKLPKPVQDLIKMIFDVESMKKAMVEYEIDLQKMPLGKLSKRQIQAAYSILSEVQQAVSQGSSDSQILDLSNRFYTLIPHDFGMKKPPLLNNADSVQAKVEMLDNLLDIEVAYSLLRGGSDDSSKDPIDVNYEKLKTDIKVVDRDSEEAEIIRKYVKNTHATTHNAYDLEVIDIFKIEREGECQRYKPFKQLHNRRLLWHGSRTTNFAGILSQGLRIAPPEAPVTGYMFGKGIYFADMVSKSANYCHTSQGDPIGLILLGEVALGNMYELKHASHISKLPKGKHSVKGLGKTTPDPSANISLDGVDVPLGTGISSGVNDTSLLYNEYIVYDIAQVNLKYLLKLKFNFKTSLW

Compound | L = PARP inhibition [1] | Induction of at least two of five FOXO3-regulated genes (SOD2, GADD45A, CAT, DDB1, TXNIP) ([2]; 10 μM, 24 hrs) | E = Potential FOXO3 Activation ([2]; 2-point score) | fold induction at 10 µM [2, 5] | fold induction at 10 µM [2, 6] | fold induction at 10 µM [2, 7] | fold induction at 10 µM [2, 8] | fold induction at 10 µM [2, 9] | fold induction at 10 µM [2, 10] | fold induction at 10 µM [2, 11] | fold induction at 10 µM [2, 12] | fold induction at 10 µM [2, 13] | fold induction at 10 µM [2, 14] | fold induction at 10 µM [2, 15] | K = Sestrin induction [2] | E = Potential FOXO3 Activation ([2]; summary score) | M = Huntington's poly-Q toxicity attenuation [3] | K = Huntington's poly-Q toxicity attenuation [3] | Percentage of propidium iodide-positive dead cells (no H2O2 stress treatment), at 10 uM [4] | further results
O=C(Nc1cccc(C(F)(F)F)c1)c1ccc([N+](=O)[O-])o1 [Gr-1E] | 0 | significant induction; also recorded: significant, induction | 0 | 1.38 | 1.45 | 2.02 | 1.39 | 0.752 | 1.4 | 1.45 | 2.02 | 1.45 | 1.46 | 2.02 | 0 | 0 | 0 | 0 | 0.71% ± 0.28%, | fold induction at 10 µM ([2]; 24 h, Assay 10(m), at 10 uM, qPCR, read-out: Induction of FOXO3-regulated genes: GADD45A normalized fold-change): 0.62; fold induction at 10 µM ([2]; 24 h, Assay 10(m), at 10 uM, qPCR, read-out: Induction of FOXO3-regulated genes: SESN1 normalized fold-change): 1.34; fold induction at 10 µM ([2]; 24 h, Assay 10(m), at 10 uM, qPCR, read-out: Induction of FOXO3-regulated genes: TXNIP normalized fold-change): 1.33; fold induction at 10 µM ([2]; 10 μM, 24 hrs, WI-38 cells, qPCR, normalized to B2M, n = 4, read-out: SESN1 expression, normalized fold change (FOXO3-regulated gene)): 1.4; fold induction at 10 µM ([2]; fold change, qPCR, WI-38 cells, 10 μM, 24 hrs, read-out: Summary of effects on FOXO3-regulated genes: SESN1): 1.4
COc1ccc(C(=O)/C=C/c2ccc(F)cc2)c(OC)c1 [Gr-4A] | 0 | significant induction; also recorded: significant, induction | 0 | 1.26 | 1.26 |  | 1.2 | 0.981 | 1.12 | 1.26 |  | 1.26 | 0.98 | 0.819 | 0 | 0 | 0 | 0 | 0.39% ± 0.14%, | fold induction at 10 µM ([2]; 24 h, Assay 10(m), at 10 uM, qPCR, read-out: Induction of FOXO3-regulated genes: DDB1 normalized fold-change): 1.2; fold induction at 10 µM ([2]; 10 μM, 24 hrs, WI-38 cells, qPCR, normalized to B2M, n = 4, read-out: DDB1 expression, normalized fold change (FOXO3-regulated gene)): 1.2; fold induction at 10 µM ([2]; fold change, qPCR, WI-38 cells, 10 μM, 24 hrs, read-out: Summary of effects on FOXO3-regulated genes: DDB1): 1.2
CNC(=O)/C(C#N)=C/c1c(Oc2ccc(C(C)(C)C)cc2)nc2ccccn2c1=O [Gr-5D] | 0 |  | 0 |  |  | 0.67 | 0.984 | 0.698 | 1.1 |  | 0.67 | 1.27 | 1.12 | 0.669 | 0 | 0 | 0 | 0 | 0.51% ± 0.18%, | 
COc1ccc(C(=O)/C=C/c2ccccc2Br)c(OC)c1 [Gr-4B] | 0 |  | 0 |  |  |  | 1.06 | 0.61 | 0.992 |  |  | 1.18 | 1.04 | 0.792 | 0 | 0 | 0 | 0 | 0.36% ± 0.13%, | 
